Test results published in patent EP0051773A1, “Penicillins, their salts, process for their preparation and pharmaceutical compositions containing them” (Dr. Karl Thomae GmbH, priority 1980, dated 1982).
≈ marks a conversion by molar mass, not a printed value.

What was measured:
[1] = tested on: Enterobacter cloacae ATCC 13 047; assay: serial dilution test in microtiter system (bacteriostasis, MIC); type: cell-based; conditions: ATCC13, liquid medium, 18 to 20 h at 37°C, read-out: MHK-Werte Eb. cloacae 13 047
Method: (§1) Für die Untersuchungen wurde die Methode des Reihenverdünnungstestes im Mikrotitersystem angewandt. Die Prüfung der Substanzen auf Bakteriostase erfolgte in flüssigem Medium. Es wurde die Bakteriostasewirkung bei folgenden Konzentrationen untersucht.
(§2) Es wurde ein Nährboden folgender Zusammensetzung benutzt: 10 g Pepton, 8 g Fleischextrakt-Oxoid, 3 g Natriumschlorid, 2 g sek. Natriumphosphat werden mit dest. Wasser auf 1000 ml aufgefüllt (pH 7,2-7,4). Lediglich bei der Testung gegen Streptokokken wurde 1% Glucose hinzugefügt. Das Alter der Primärkulturen betrug etwa 20 Stunden. Die Einstellung der Keimsuspension erfolgte am Photometer (nach "Eppendorf") (Reagenzglas-Durchmesser 14 mm, Filter 546 nm) anhand der Trübung einer Bariumsulfat-Vergleichssuspension, die durch eine Bariumsulfat-Aufschwemmung erzeugt wurde, welche durch die Zugabe von 3,0 ml 1%ige Bariumchloridlösung in 97 ml 1%ige Schwefelsäure entstand. Nach der Einstellung wurden Streptococcus Aronson im Verhältnis 1:15 und die übrigen Testkeime im Verhältnis 1:1500 mit einer Kochsalzlösung weiter verdünnt.
(§3) 16 mg der jeweiligen Substanz wurden in 10 ml-Meßkolben eingewogen und mit dem Lösungsmittel bis zur Marke aufgefüllt. Die weitere Verdünnungsreihe wurde mit destilliertem Wasser oder dem jeweiligen Lösungsmittel hergestellt.
(§4) Die Vertiefungen der Mikrotiterplatten wurden mit 0,2 ml Nährmedium, 0,01 ml der entsprechenden Substanzverdünnung und mit einem Tropfen Keimsuspension (0,01 ml) beschickt und 18 bis 20 Stunden bei 37°C bebrütet. Eine Lösungsmittelkontrolle wurde stets mitgeführt.
(§5) Die Ablesung wurde makroskopisch vorgenommen, wobei die jeweilige Grenkonzentration (= niedrigste noch bakteriostatisch wirksame Konzentration) ermittelt wurde.
(§6) Als Testorganismen wurden benützt: - Staphylococcus aureus SG 511, Escherichia coli ATCC 11 775, Pseudomonas aeruginosa Hamburgensis und Walter, Serratia marcescens ATCC 13 880, Klebsiella pneumoniae ATCC 10 031 und BC 6, Proteus mirabilis Hamburgensis, Proteus rettgeri BC 7 und Enterobacter cloacae ATCC 13 047.
(§7) In der folgenden Tabelle 2 sind die ermittelten minimalen Hemmkonzentrationen (MIC) für typische Vertreter der erfindungsgemäßen Verbindungen aufgeführt, wobei sich die Ziffern auf die Penicilline der Tabelle 1 Seite 18 beziehen.

[2] = tested on: Escherichia coli ATCC 11 775; assay: as above; type: cell-based; conditions: ATCC11, liquid medium, 18 to 20 h at 37°C, read-out: MHK-Werte E.coli ATCC 11 755
Method: as §1, §2, §3, §4, §5, §6, §7

[3] = tested on: Klebsiella pneumoniae ATCC 10 031; assay: as above; type: cell-based; conditions: ATCC10, liquid medium, 18 to 20 h at 37°C, read-out: MHK-Werte Kl. pneum. ATCC 10 031
Method: as §1, §2, §3, §4, §5, §6, §7

[4] = tested on: Klebsiella pneumoniae BC 6; assay: as above; type: cell-based; conditions: BC6, liquid medium, 18 to 20 h at 37°C, read-out: MHK-Werte Kl. pneum. BC 6
Method: as §1, §2, §3, §4, §5, §6, §7

[5] = tested on: Proteus mirabilis Hamburgensis; assay: as above; type: cell-based; conditions: liquid medium, 18 to 20 h at 37°C, read-out: MHK-Werte Prot. mir. Hbg.
Method: as §1, §2, §3, §4, §5, §6, §7

Proteus rettgeri BC 7 = assay: as above; type: cell-based; conditions: Providencia rettgeri, BC7; liquid medium, 18 to 20 h at 37°C; read-out: MHK-Werte Prot. rettg. BC 7
Method: as §1, §2, §3, §4, §5, §6, §7

[6] = tested on: Pseudomonas aeruginosa Hamburgensis; assay: as above; type: cell-based; conditions: liquid medium, 18 to 20 h at 37°C, read-out: MHK-Werte Pseud. aerug. Hbg.
Method: as §1, §2, §3, §4, §5, §6, §7

[7] = tested on: Pseudomonas aeruginosa Walter; assay: as above; type: cell-based; conditions: liquid medium, 18 to 20 h at 37°C, read-out: MHK-Werte Pseud. aerug. Walter
Method: as §1, §2, §3, §4, §5, §6, §7

[8] = tested on: Serratia marcescens ATCC 13 880; assay: as above; type: cell-based; conditions: ATCC13, liquid medium, 18 to 20 h at 37°C, read-out: MHK-Werte Serr. marcesc. ATCC 13 880
Method: as §1, §2, §3, §4, §5, §6, §7

[9] = tested on: Staphylococcus aureus SG 511; assay: as above; type: cell-based; conditions: SG511, liquid medium, 18 to 20 h at 37°C, read-out: MHK-Werte Staph. aureus SG 511
Method: as §1, §2, §3, §4, §5, §6, §7

E.coli ATCC 11 775 = assay: experimental intraperitoneal infection in mice, ED50 (survival); type: in vivo, Mäuse; conditions: Escherichia coli, ATCC 11 / ATCC 1175, sc, 168 h; female NMRI mice, i.p. infection, s.c. application, treated once, 7 days observation
Method: (§8) Eine Reihe der erfindungsgemäßen Verbindungen wurde in vivo bei experimentellen Infektionen an Mäusen untersucht. Man verwendete als pathogene Bakterien E.coli ATCC 11 775 und Pseudomonas aeruginosa Walter. Es wurde eine intraperitoneale Infektion mit 0,2 ml einer 5%igen Mucinsuspension der Bakterien gesetzt. Dies entspricht etwa 2x10^6 Keime E.coli bzw. 8x10^5 Keime Pseudomonas/Maus. Weibliche Mäuse vom Stamm NMRI wurden in Gruppen von jeweils 10 Tieren aufgeteilt, zwei Gruppen blieben unbehandelt, die restlichen Gruppen wurden mit verschiedenen Dosen der jeweiligen erfindungsgemäßen Penicilline zur Bestimmung der ED50 (Dosis, bei der 50 % der Tiere überleben) behandelt. Bei der E.coli-Infektion wurde einmal therapiert. Bei der Pseudomonas-Infektion wurde dreimal behandelt.
(§9) Der Beobachtungszeitraum betrug in beiden Fällen 7 Tage. Die Ergebnisse dieser Teste mit repräsentativen Vertretern der erfindungsgemäßen Penicilline sind in der Tabelle 3 dargestellt.

[10] = tested on: Pseudomonas aeruginosa Walter; assay: as above; type: in vivo, Mäuse; conditions: sc, 168 h, female NMRI mice, i.p. infection, s.c. application, treated three times, 7 days observation, read-out: ED50 Pseud. aerug. Walter
Method: as §8, §9

Structure (SMILES)	MIC [1] [µg/mL]	MIC [2] [µg/mL]	MIC [3] [µg/mL]	MIC [4] [µg/mL]	MIC [5] [µg/mL]	MIC (Proteus rettgeri BC 7) [µg/mL]	MIC [6] [µg/mL]	MIC [7] [µg/mL]	MIC [8] [µg/mL]	MIC [9] [µg/mL]	ED50 (E.coli ATCC 11 775) [mg/kg]	ED50 [10] [mg/kg]
CC1(C)S[C@@H]2[C@H](NC(=O)[C@H](NC(=O)N3CCNC3=O)c3ccccc3)C(=O)N2[C@H]1C(=O)O [A, 6-{D-α'-[(2-Oxo-imidazolidin-1-yl)-carbonylamino]-4-phenylacetamido}-penicillansäure-Natriumsalz, reference compound]	32 (≈ 69.3 µM)	16 (≈ 34.7 µM)	32 (≈ 69.3 µM)	32 (≈ 69.3 µM)	0.5 (≈ 1.08 µM)	2 (≈ 4.33 µM)	8 (≈ 17.3 µM)	8 (≈ 17.3 µM)	2 (≈ 4.33 µM)	0.5 (≈ 1.08 µM)	> 100	225
CCN1CCN(C(=O)N[C@@H](C(=O)N[C@@H]2C(=O)N3[C@@H]2SC(C)(C)[C@@H]3C(=O)O)c2ccccc2)C(=O)C1=O [D, Piperacillin, reference compound]	4 (≈ 7.73 µM)	2 (≈ 3.86 µM)	4 (≈ 7.73 µM)	8 (≈ 15.5 µM)	0.25 (≈ 0.483 µM)	0.5 (≈ 0.966 µM)	4 (≈ 7.73 µM)	8 (≈ 15.5 µM)	0.5 (≈ 0.966 µM)	0.25 (≈ 0.483 µM)	89	186
CC1(C)S[C@@H]2[C@H](NC(=O)[C@H](NC(=O)Nc3cnc(Nc4ccc(S(N)(=O)=O)cc4)nc3O)c3ccccc3)C(=O)N2[C@H]1C(=O)O [Verbindung 1, D-α-[3-(2-p-Aminosulfonylanilino-4-hydroxy-5-pyrimidinyl)-ureido]-benzylpenicillin-Natrium]	0.5 (≈ 0.761 µM)	0.12 (≈ 0.183 µM)	0.5 (≈ 0.761 µM)	0.5 (≈ 0.761 µM)	< 0.03	0.25 (≈ 0.381 µM)	1 (≈ 1.52 µM)	1 (≈ 1.52 µM)	0.12 (≈ 0.183 µM)	0.12 (≈ 0.183 µM)	3.9	8.2
CC1(C)S[C@@H]2[C@H](NC(=O)[C@H](NC(=O)Nc3cnc(Nc4ccc(S(N)(=O)=O)cc4)nc3O)c3ccc(O)c(O)c3)C(=O)N2[C@H]1C(=O)O [Verbindung 3]	4 (≈ 5.81 µM)	1 (≈ 1.45 µM)	8 (≈ 11.6 µM)	8 (≈ 11.6 µM)	0.5 (≈ 0.726 µM)	1 (≈ 1.45 µM)	4 (≈ 5.81 µM)	4 (≈ 5.81 µM)	4 (≈ 5.81 µM)	0.5 (≈ 0.726 µM)	3.7	10.4
CC1(C)S[C@@H]2[C@H](NC(=O)[C@H](NC(=O)Nc3cnc(Nc4ccc(S(N)(=O)=O)cc4)nc3O)c3ccc(O)c(Cl)c3)C(=O)N2[C@H]1C(=O)O [Verbindung 4]	1 (≈ 1.41 µM)	0.25 (≈ 0.354 µM)	2 (≈ 2.83 µM)	2 (≈ 2.83 µM)	0.25 (≈ 0.354 µM)	0.5 (≈ 0.707 µM)	2 (≈ 2.83 µM)	1 (≈ 1.41 µM)	0.25 (≈ 0.354 µM)	0.25 (≈ 0.354 µM)	6.1	–
CNS(=O)(=O)c1ccc(Nc2ncc(NC(=O)N[C@@H](C(=O)N[C@@H]3C(=O)N4[C@@H]3SC(C)(C)[C@@H]4C(=O)O)c3ccc(O)cc3)c(O)n2)cc1 [Verbindung 7, D-α-[3-(4-Hydroxy-2-p-methylaminosulfonylanilino-5-pyrimidinyl)-ureido]-p-hydroxy-benzylpenicillin-Natrium]	0.5 (≈ 0.728 µM)	0.12 (≈ 0.175 µM)	1 (≈ 1.46 µM)	1 (≈ 1.46 µM)	0.06 (≈ 0.0874 µM)	0.5 (≈ 0.728 µM)	1 (≈ 1.46 µM)	1 (≈ 1.46 µM)	0.12 (≈ 0.175 µM)	0.25 (≈ 0.364 µM)	3.4	6.6
CN(C)S(=O)(=O)c1ccc(Nc2ncc(NC(=O)N[C@@H](C(=O)N[C@@H]3C(=O)N4[C@@H]3SC(C)(C)[C@@H]4C(=O)O)c3ccccc3)c(O)n2)cc1 [Verbindung 14]	–	–	–	–	–	–	–	–	–	–	4.2	8.5
